pIC50: −log10 of the molar value. Like-named read-outs stand apart in the source and are kept apart here.
Assays:
[1] = 18-membered ring, DCM, 25.0 °C
[2] = test system: human KRAS G12C mutated cell line MIA PaCa-2; assay: KRas G12C in vitro inhibitory activity: cell proliferation, CellTiter-Glo; format: cell-based
From the text: (§1) The present example evaluates the ability of compounds provided herein to inhibit proliferation of KRAS mutant cells.
The inhibitory effect on cell proliferation was investigated in the human KRAS G12C mutated cell line MIA PaCa-2 (Yunis et al., 1977, Int. J. Cancer 19(1):128-135; ATCC catalog no. CRL-1420). Cells were maintained in RPMI-1640 medium (ThermoFisher catalog no. 61870036) supplemented with 10% of Heat Inactivated FBS (ThermoFisher catalog no. A31605) and 1% Pen-Strep (ThermoFisher catalog no. 10378016) and cultured at 37° C. in a humidified incubator with 5% CO2. Cells were grown by adhering to culture flasks, and maintained at 70%-80% confluency.
(§2) ATP is present in all metabolically active cells and is considered as a marker for viable cells. The number of metabolically active live cells in culture was determined using the CellTiter-Glo kit (Promega catalog no. G7572), an ATP monitoring system based on the production of luminescence by the reaction of ATP with added UltraGlo® recombinant luciferase (Kawano et al., 2016, PLOS One, 8; 11(7):e0158888), according to the supplier's experimental recommendations. The cell proliferation assay was based on a 96 well plate format.
(§3) Test compounds were dissolved at 10 mM in DMSO (Sigma catalog no. D8418; purity >99.9%) and stored at −20° C. Eight concentrations of test compound were assessed in duplicate in an individual test occasion in parallel in the selected cell lines. MRTX-849 and AMG-510 were used as reference compounds and tested in duplicate at eight concentrations. 100% of proliferation is represented by the untreated cells (0.2% DMSO).
(§4) On the day of the experiment (TO), cells were detached with TrypLE (ThermoFisher catalog no. 12604054), quantified using the cell viability analyser NucleoCounter (Chemometec NC-200) and resuspended in fresh medium at a cell density of about 5000 cells per 200 μL medium. 200 μL of cell suspension were added to each well of a 96 well plate.
Two hours after seeding cells, compounds were added at desired concentrations using a D300e compound dispenser (Life Sciences Tecan D300) with shaking after each compound addition. Assay plates were incubated at 37° C. in a humidified incubator with 5% CO2.
(§5) To measure 3 day inhibition of cell proliferation on day 3 (T3), assay plates were equilibrated to room temperature for approximately 15 min, and the Promega CellTiterGlo® reagent was added at 40 μL/well. Contents were mixed for 5 min on an orbital shaker to induce cell lysis, and then incubated at room temperature for an additional 10 min in the dark to stabilize the luminescent signal. Luminescence was read using a GloMax GM300 plate reader (Promega) using the luminescence for 96 well plate standard protocol.
as §5, with “measure 7” for “measure 3”, “(T3), 150 μL of growth media was removed from each well of the assay plates and replaced with 150 uL fresh growth media, and fresh compounds added using a D300e compound dispenser (Life Sciences Tecan D300) at desired concentrations with shaking between each compound addition. Assay plates were incubated at 37° C. in a humidified incubator with 5% CO2. On day 7 (T7)” for “(T3),”
Data was expressed as % of inhibition compared to the 0.2% DMSO negative no drug control, and is calculated as follows: % inhibition=100−[(RLU sample)×100/(RLU average controls*)], where * indicates the average for 0.2% DMSO.
(§6) Results were analyzed by GraphPad (Prism) and IC50 values were calculated by non-linear regression using four parameter-logistic equation. […]

[3] = test system: human KRAS G12D mutated cell line SUIT-2; assay: KRas G12D in vitro inhibitory activity: cell proliferation, CellTiter-Glo; format: cell-based; conditions: 7 day inhibition of cell proliferation, medium and compound renewed on day 3, CellTiter-Glo luminescence
From the text: as §1
The proliferation inhibitory effect was investigated in the human KRAS G12D mutated cell line SUIT-2 (Iwamura et al., 1987, Jpn. J. Cancer Res. 78.54-62; JCRB catalog no. JCRB1094). Cells were maintained in RPMI-1640 medium (ThermoFisher catalog no. 61870036) supplemented with 10% of Heat Inactivated FBS (ThermoFisher catalog no. A31605) and 1% Pen-Strep (ThermoFisher catalog no. 10378016) and cultured at 37° C. in a humidified incubator with 5% CO2. Cells were grown by adhering to culture flasks, and maintained at 70%-80% confluency.
as §2
as §3, with “(0.1%” for “(0.2%”
as §4, with “12604054)” for “12604054),”, “analyzer” for “analyser”, “1000” for “5000”
Two 2 hours after seeding cells, compounds were added at desired concentrations using a D300e compound dispenser (Life Sciences Tecan D300) with shaking after each compound addition. Assay plates were incubated at 37° C. in a humidified incubator with 5% CO2.
On day 3 (T3), 150 μL of growth media was removed from each well of the assay plates and replaced with 150 uL fresh growth media, and fresh compounds added using a D300e compound dispenser (Life Sciences Tecan D300) at desired concentrations with shaking between each compound addition. […] Luminescence was read using a GloMax GM300 plate reader (Promega) using the luminescence for 96 well plate standard protocol. […]
as §6

[4] = Homo sapiens, MIA PaCa-2, 72 h, 3 day inhibition of cell proliferation, CellTiter-Glo luminescence, read-out: MIA PaCa-2 Day 3 IC50
[5] = Homo sapiens, MIA PaCa-2, 7 day inhibition of cell proliferation, medium and compound renewed on day 3, CellTiter-Glo luminescence, read-out: MIA PaCa-2 Day 7 IC50

SMILES | pIC50 [3] | pIC50 [2, 4] | pIC50 [2, 5] | also measured
CCn1c(-c2cccnc2[C@H](C)OC)c2c3cc(ccc31)-c1cccc(c1)C[C@H](NC(=O)OC(C)(C)C)C(=O)N1CC[C@@H](C1)C(=O)OCC(C)(C)C2 | – | – | – | ring closure, isolated yield ([1]; from CCn1c(-c2cccnc2[C@H](C)OC)c(CC(C)(C)CO)c2cc(-c3cccc(C[C@H](NC(=O)OC(C)(C)C)C(=O)N4CC[C@H](C(=O)O)C4)c3)ccc21, ester bond, EDC/HOBT/DIPEA, 47.2 mM, 16.0 h, 2 steps): 60%
CCn1c(-c2cccnc2[C@H](C)OC)c2c3cc(ccc31)-c1cccc(c1)C[C@H](NC(=O)OCc1ccccc1)C(=O)N1CCC[C@@H](CC(=O)OC(C)(C)C2)C1 | – | – | – | ring closure, isolated yield ([1]; from CCn1c(-c2cccnc2[C@H](C)OC)c(CC(C)(C)OC(=O)C[C@@H]2CCCNC2)c2cc(-c3cccc(C[C@H](NC(=O)OCc4ccccc4)C(=O)O)c3)ccc21, amide bond, T3P/DIPEA, 32.3 mM, 1.0 h, 3 steps): 44%
CCn1c(-c2cccnc2[C@H](C)OC)c2c3cc(ccc31)-c1cccc(c1)C[C@H](NC(=O)[C@H](C(C)C)N(C)C(=O)[C@H]1CCN(C(=O)C#CCN3CCOCC3)C1)C(=O)N1CCC[C@H](C1)C(=O)OCC(C)(C)C2 (atropisomer, axis not shown) [Compound 1, (3S)—N-((2S)-1-(((6^3R,4S)-1^1-ethyl-1^2-(2-((S)-1-methoxyethyl)pyridin-3-yl)-10,10-dimethyl-5,7-dioxo-1^1H-8-oxa-1(5,3)-indola-6(1,3)-piperidina-2(1,3)-benzenacycloundecaphane-4-yl)amino)-3-methyl-1-oxobutan-2-yl)-N-methyl-1-(4-morpholinobut-2-ynoyl)pyrrolidine-3-carboxamide] | < 7.00 | – | – | pIC50 ([2]; 7 day inhibition of cell proliferation, medium and compound renewed on day 3, CellTiter-Glo luminescence, read-out: MIA PaCa-2 Day 7 IC50): 7.00 to 8.00
CCn1c(-c2cccnc2[C@H](C)OC)c2c3cc(ccc31)-c1cccc(c1)C[C@H](NC(=O)[C@H](C(C)C)N(C)C(=O)[C@H]1CCN(CC#CC(=O)N(C)C)C1)C(=O)N1CCC[C@H](N1)C(=O)OCC(C)(C)C2 (atropisomer, axis not shown) [Compound 3, (3S)-1-(4-(dimethylamino)-4-oxobut-2-yn-1-yl)-N-((2S)-1-(((6^3S,4S)-1^1-ethyl-1^2-(2-((S)-1-methoxyethyl)pyridin-3-yl)-10,10-dimethyl-5,7-dioxo-6^1,6^2,6^3,6^4,6^5,6^6-hexahydro-1^1H-8-oxa-1(5,3)-indola-6(1,3)-pyridazina-2(1,3)-benzenacycloundecaphane-4-yl)amino)-3-methyl-1-oxobutan-2-yl)-N-methylpyrrolidine-3-carboxamide] | < 7.00 | 8.00 to 9.00 | 8.00 to 9.00 | –
CCn1c(-c2cccnc2[C@H](C)OC)c2c3cc(ccc31)-c1cccc(c1)C[C@H](NC(=O)[C@H](C(C)C)N(C)C(=O)[C@H]1CCN(C(=O)C#CC(=O)N(C)C)C1)C(=O)N1CCC[C@H](N1)C(=O)OCC(C)(C)C2 (atropisomer, axis not shown) [Compound 4] | < 7.00 | – | < 7.00 | –
CCn1c(-c2cccnc2[C@H](C)OC)c2c3cc(ccc31)-c1cccc(c1)C[C@H](NC(=O)[C@H](C(C)C)N(C)C(=O)[C@H]1CCN(C(C)C#CC(=O)N(C)C)C1)C(=O)N1CCC[C@H](N1)C(=O)OCC(C)(C)C2 (stereo partly drawn) [Compound 5] | < 7.00 | 8.00 to 9.00 | 7.00 to 8.00 | –

From US20250066386A1, “INHIBITORS OF KRAS” (BIOMEA FUSION, INC., priority 2022, published 2025)
